Data from patent US20260374766A1, “METHODS FOR TREATING CANCER” (Antares Therapeutics, Inc., priority 2022, published 2026).
Where two headings read alike, the source gives them in different places.

Assays:
[1] = target: T1, p53 Y220C mutant protein (amino acid residues 94-293) (Homo sapiens, UniProt P04637, Y220C); experiment: Surface Plasmon Resonance (SPR) assay, Kd_kinetic; assay type: binding; settings: read-out: SPR P53 Y220C KD kinetic
T1 construct: p53 Y220C mutant protein (amino acid residues 94-293)
Summary of the method: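 Kd values come from fitting sensorgrams to a 1:1 binding model. Sensorgrams were recorded on a Biacore 8K at 16 or 20 °C in pH 7.5 Tris buffer with 100 mM NaCl, 1 mM DTT, detergents and 1% DMSO.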

[2] = target: T1, p53 Y220C mutant protein (amino acid residues 94-293); experiment: Thermal Shift Assay (TSA), dTM; assay type: binding; settings: p53 Y220C, read-out: TSA P53 Y220C dTM; for ΔTm at 10 µM: 10 uM compound
Summary of the method: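 TM is derived by fitting Sypro Orange melt curves (30 °C to 50 °C, 0.03 °C/second) to a Boltzmann two-state model. Beforehand, 5 μM p53 Y220C (94-293) sits with 10 μM or 100 μM compound for 3 hours at 20 °C in HEPES pH7.4 buffer containing 100 mM NaCl and 1% DMSO.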

p53 Y220C = p53 Y220C (Homo sapiens, UniProt P04637, Y220C); experiment: Luciferase Reporter Assay (Luc), p53 response element, NClH1299 cells with inducible p53 Y220C; assay type: cell-based; settings: luciferase reporter, NClH1299 inducible p53 Y220C, 6 hour; for AC50: read-out: Luc P53 Y220C AC50
Summary of the method: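 Doxycycline (0.5 ug/mL, 24 h) induces the mutant before a 6-hour compound treatment. Reporter activity is then quantified by One-Glo luminescence.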

NUGC3 p53 Y220C = experiment: Cell Proliferation Assay (CellTiter-Glo, CTG), NUGC3 p53 Y220C; assay type: cell-based; settings: Homo sapiens, NUGC-3, 120 h, NUGC3 cells, 5 days, CellTiter-Glo
Summary of the method: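 NClH1299 lines stably transduced with Tet-inducible p53 Y220C or R273H, plus NUGC3, were treated with compound for 5 days at 250-500 cells/well. IC50 derived from CellTiter-Glo luminescent signal after 10 min room-temperature incubation.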

H1299 p53 Y220C = experiment: Cell Proliferation Assay (CellTiter-Glo, CTG), H1299 p53 Y220C (NClH1299-inducible p53 Y220C); assay type: cell-based; settings: Homo sapiens, NCI-H1299, 120 h, NClH1299-inducible p53 Y220C cells, 5 days, CellTiter-Glo
Summary of the method: (§1)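 Tet-One inducible p53 Y220C or R273H constructs were stably introduced into NCI-H1299 by lentiviral transduction; NUGC3 was used as is. Cells (250-500 per well) were exposed to compound for 5 days, then CellTiter-Glo was added for 10 min at room temperature and IC50 was calculated from luminescence.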

H1299 p53 R273H = experiment: Cell Proliferation Assay (CellTiter-Glo, CTG), H1299 p53 R273H (NClH1299-inducible p53 R273H); assay type: cell-based; settings: Homo sapiens, NCI-H1299, 120 h, NClH1299-inducible p53 R273H cells, 5 days, CellTiter-Glo
Summary of the method: as §1

Row | SMILES | Kd ([1]; SPR, p53 Y220C) [nM] | ΔTm at 10 µM [2] [°C] | AC50 (p53 Y220C) [nM] | Emax (p53 Y220C) [%] | IC50 (H1299 p53 Y220C) [nM] | IC50 (H1299 p53 R273H) [nM] | ΔTm at 100 µM ([2]; 100 uM compound) [°C] | Kd [1] [nM] | IC50 (NUGC3 p53 Y220C) [nM]
1 | CNC(=O)c1ccc(OC)c(NCC#Cc2nc3c(N[C@@H]4CCN(CCOC)C[C@@H]4F)cccn3c2SC(F)(F)F)c1 [Example 296] | < 10 | ≥ 10 | < 750 | 80 to 90 | < 750 | ≥ 10000 |  |  | < 750
2 | CNC(=O)c1ccc(NCC#Cc2cc3c(N[C@@H]4CCN(C)C[C@@H]4F)nccn3c2SC(F)(F)F)cc1 [Example 297] |  | ≥ 10 | < 750 | > 90 | < 750 | ≥ 10000 |  | < 10 | < 750
3 | CNC(=O)c1ccc(C#N)c(NCC#Cc2cc3c(N[C@@H]4CCN(C)C[C@@H]4F)nccn3c2SC(F)(F)F)c1 [Example 300] | < 10 | ≥ 10 | < 750 | > 90 | < 750 | ≥ 10000 |  |  | < 750
4 | CNC(=O)c1cc(F)c(OC)c(NCC#Cc2nc3c(N[C@@H]4CCN(C)C[C@@H]4F)cccn3c2SC(F)(F)F)c1 [Example 303] | < 10 | ≥ 10 | < 750 | > 90 | < 750 | ≥ 10000 |  |  | < 750
5 | CNC(=O)c1cc(F)c(OC)c(NCC#Cc2nc3c(N[C@@H]4CCNC[C@@H]4F)cccn3c2SC(F)(F)F)c1 [Example 304] | < 10 | ≥ 10 | < 750 | > 90 | < 750 | < 5000 |  |  | < 750
6 | CCNC(=O)c1ccc(NCC#Cc2cc3c(N[C@@H]4CCN(C)C[C@@H]4F)nccn3c2SC(F)(F)F)c(OC)c1 [Example 306] | < 10 | ≥ 10 | < 750 | > 90 | < 750 | 5000 to 8000 |  |  | < 750
7 | CNC(=O)c1ccc(OC)c(NCC#Cc2nc3c(N[C@@H]4CCNC[C@@H]4F)nccn3c2SC(F)(F)F)c1 [Example 307] | < 10 | ≥ 10 | < 750 | 80 to 90 | < 750 | ≥ 10000 |  |  | < 750

Now from value to compound, other results behind:

Row | Kd ([1]; SPR, p53 Y220C) [nM] | ΔTm at 10 µM [2] [°C] | AC50 (p53 Y220C) [nM] | Emax (p53 Y220C) [%] | IC50 (H1299 p53 Y220C) [nM] | IC50 (H1299 p53 R273H) [nM] | ΔTm at 100 µM ([2]; 100 uM compound) [°C] | Kd [1] [nM] | SMILES | IC50 (NUGC3 p53 Y220C) [nM]
8 | < 10 | ≥ 10 | < 750 | > 90 | < 750 | ≥ 10000 |  |  | CCNC(=O)c1ccc(OC)c(NCC#Cc2cc3c(N[C@@H]4CCN(C)C[C@@H]4F)nccn3c2SC(F)(F)F)c1 [Example 290] | < 750
9 | < 10 | ≥ 10 | < 750 | > 90 | < 750 | ≥ 10000 | ≥ 10 |  | CCNC(=O)c1cnc(OC)c(NCC#Cc2cc3c(N[C@@H]4CCN(C)C[C@@H]4F)nccn3c2SC(F)(F)F)c1 [Example 291] | < 750
10 | < 10 | ≥ 10 | < 750 | > 90 | < 750 | ≥ 10000 |  |  | CNC(=O)c1cnc(OC)c(NCC#Cc2cc3c(N[C@@H]4CCNC[C@@H]4F)nccn3c2SC(F)(F)F)c1 [Example 292] | < 750
11 | < 10 | ≥ 10 | < 750 | 80 to 90 | < 750 | ≥ 10000 |  |  | CCNC(=O)c1cnc(OC)c(NCC#Cc2nc3c(N[C@@H]4CCN(C)C[C@@H]4F)cccn3c2SC(F)(F)F)c1 [Example 293] | < 750
12 | < 10 | ≥ 10 | < 750 | > 90 | < 750 | ≥ 10000 |  |  | CNC(=O)c1ccc(C)c(NCC#Cc2cc3c(N[C@@H]4CCN(C)C[C@@H]4F)nccn3c2SC(F)(F)F)c1 [Example 294] | < 750
13 | < 10 | ≥ 10 | < 750 | > 90 | < 750 | 8000 to 10000 |  |  | CNC(=O)c1ccc(NCC#Cc2cc3c(N[C@@H]4CCNC[C@@H]4F)nccn3c2SC(F)(F)F)c(OC)c1 [Example 295] | < 750
